Data: patent US20260035382A1, “COMPOUNDS AS SUMO ACTIVATING ENZYME INHIBITORS” (WIGEN BIOMEDICINE TECHNOLOGY (SHANGHAI) CO., LTD., priority 2022, published 2026)
Where two headings read alike, the source gives them in different places.

Molecular target: SAE (Homo sapiens (Human), UniProt Q9UBT2)
Assay: In vitro inhibitory activity assay against SAE (SUMO-2/3 immunofluorescence in HCT116 cells)
Assay type: cell-based
Conditions: 6 h incubation, read-out: SUMO IF IC50
Procedure: HCT116 cells were seeded into a 96-well black transparent bottom plate at about 20000/well with 90 μL per well. The cells were incubated at 37° C. overnight for 24 h. The test compounds were 10-fold diluted to give a final concentration, and 10 μL of the diluted compounds was added to each well of the cell culture plate. The mixture was incubated at 37° C. for 6 h. The cells were then washed gently, the culture medium was discarded, and the cells were washed once with 200 μL of 0.1% o PBST. 50 μL of 4% PFA was added to each well, and the cells were immobilized at room temperature for 20 min, and then washed with PBS 2-3 times. 50 μL of 0.2% o Triton X-100 was added to each well, and the cells were left to stand at room temperature for 15 min and washed with 0.1% PBST 3 times. 100 uL of 3% BSA (0.6 g BSA+20 mL PBS) was added to each well, and the mixture was blocked at 37° C. for 30 min. After the blocking was completed, the liquid was removed and a primary antibody (SUMO-2/3 (181H8) Rabbit mAb, 1:400 dilution) was prepared with […]. 30 μL of the diluted primary antibody was added to each well, and the mixture was incubated at 4° C. overnight. The cells were washed 3 times with 200 μL of 0.1% o PBST. A FITC secondary antibody (Fluorescein (FITC)-conjugated Affinipure Goat Anti-Rabbit IgG (H+L), 1:300 dilution) was further prepared with 1% o BSA, and 40 μL of the diluted secondary antibody was added to each well. The mixture was incubated at room temperature in the dark for 2 h, and then the cells were washed 4 times with 0.1% PBST. The fluorescence signal of the sample was detected and compared to the DMSO group, and the inhibition rate and IC50 were calculated.

SAE, sequence (Q9UBT2 whole entry): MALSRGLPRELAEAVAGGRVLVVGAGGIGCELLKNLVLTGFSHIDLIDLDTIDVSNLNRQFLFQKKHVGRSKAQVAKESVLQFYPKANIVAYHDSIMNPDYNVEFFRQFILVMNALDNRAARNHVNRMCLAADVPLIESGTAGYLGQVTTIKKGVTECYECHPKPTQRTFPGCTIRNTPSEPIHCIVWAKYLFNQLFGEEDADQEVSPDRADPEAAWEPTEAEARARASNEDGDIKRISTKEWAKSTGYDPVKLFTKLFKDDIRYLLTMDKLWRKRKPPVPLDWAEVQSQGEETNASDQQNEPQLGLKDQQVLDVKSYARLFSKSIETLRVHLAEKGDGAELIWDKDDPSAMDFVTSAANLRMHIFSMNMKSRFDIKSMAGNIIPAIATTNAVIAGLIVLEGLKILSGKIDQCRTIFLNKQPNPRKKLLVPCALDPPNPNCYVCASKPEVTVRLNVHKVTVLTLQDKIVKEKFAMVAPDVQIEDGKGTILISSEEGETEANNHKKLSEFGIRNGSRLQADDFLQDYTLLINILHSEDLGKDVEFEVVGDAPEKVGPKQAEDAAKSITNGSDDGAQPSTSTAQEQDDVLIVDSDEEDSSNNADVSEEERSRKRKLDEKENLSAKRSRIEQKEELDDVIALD
SAE, sequence (Q9UBE0 whole entry partner): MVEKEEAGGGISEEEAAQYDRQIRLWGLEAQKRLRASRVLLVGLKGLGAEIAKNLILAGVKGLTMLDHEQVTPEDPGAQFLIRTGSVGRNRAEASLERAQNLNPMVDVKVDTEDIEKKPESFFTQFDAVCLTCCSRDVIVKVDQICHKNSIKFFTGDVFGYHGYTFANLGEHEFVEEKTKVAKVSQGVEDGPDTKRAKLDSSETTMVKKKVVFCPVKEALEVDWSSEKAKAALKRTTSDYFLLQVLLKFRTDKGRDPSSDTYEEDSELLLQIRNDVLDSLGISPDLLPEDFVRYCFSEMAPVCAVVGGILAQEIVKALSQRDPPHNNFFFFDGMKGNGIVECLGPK

Compound | IC50 (class symbols) [nM] | IC50 (numeric values) [nM]
NS(=O)(=O)OC[C@H]1C[C@@H](Nc2ncncc2C(=O)c2cc3c(s2)OC[C@]32NCCc3ccccc32)C[C@@H]1O [Compound 57] | 50 to 200 | 
NS(=O)(=O)OC[C@H]1C[C@@H](Nc2ncncc2C(=O)c2cc3c(s2)OCC32NCCc3ccc(F)cc32)C[C@@H]1O (stereo partly shown) [Compound 58] | > 200 | 
NS(=O)(=O)OC[C@H]1C[C@@H](Nc2ncncc2C(=O)c2cc3c(s2)OC[C@@]32NCCc3ccc(F)cc32)C[C@@H]1O [Compound 59] | > 200 | 
NS(=O)(=O)OC[C@H]1C[C@@H](Nc2ncncc2C(=O)c2cc3c(s2)OC[C@]32NCCc3ccc(F)cc32)C[C@@H]1O [Compound 60] | 50 to 200 | 
NS(=O)(=O)OC[C@H]1C[C@@H](Nc2ncncc2C(=O)c2cc3c(s2)OCC32NCCc3ccc(Cl)cc32)C[C@@H]1O (stereo partly shown) [Compound 61] | 50 to 200 | 
NS(=O)(=O)OC[C@H]1C[C@@H](Nc2ncncc2C(=O)c2cc3c(s2)OC[C@@]32NCCc3ccc(Cl)cc32)C[C@@H]1O [Compound 62] | > 200 | 
NS(=O)(=O)OC[C@H]1C[C@@H](Nc2ncncc2C(=O)c2cc3c(s2)OC[C@]32NCCc3ccc(Cl)cc32)C[C@@H]1O [Compound 63] | 50 to 200 | 
Cc1ccc2c(c1)C1(CCc3sc(C(=O)c4cncnc4N[C@@H]4C[C@H](COS(N)(=O)=O)[C@@H](O)C4)cc31)NCC2 (stereo partly shown) [Compound 64] | 50 to 200 | 
NS(=O)(=O)OC[C@H]1C[C@@H](Nc2ncncc2C(=O)c2cc3c(s2)CCC32NCCc3ccc(C4CC4)cc32)C[C@@H]1O (stereo partly shown) [Compound 65] | 50 to 200 | 
COc1ccc2c(c1)C1(CCc3sc(C(=O)c4cncnc4N[C@@H]4C[C@H](COS(N)(=O)=O)[C@@H](O)C4)cc31)NCC2 (stereo partly shown) [Compound 66] | > 200 | 
NS(=O)(=O)OC[C@H]1C[C@@H](Nc2ncncc2C(=O)c2cc3c(s2)CCC32NCCc3ccc(C(F)(F)F)cc32)C[C@@H]1O (stereo partly shown) [Compound 67] | 50 to 200 | 
NS(=O)(=O)OC[C@H]1C[C@@H](Nc2ncncc2C(=O)c2cc3c(s2)CCC32NCCc3cc(F)c(F)cc32)C[C@@H]1O (stereo partly shown) [Compound 68] | 50 to 200 | 
NS(=O)(=O)OC[C@H]1C[C@@H](Nc2ncncc2C(=O)c2cc3c(s2)CCC32NCCc3cc(F)c(Cl)cc32)C[C@@H]1O (stereo partly shown) [Compound 69] | ≤ 50 | 
NS(=O)(=O)OC[C@H]1C[C@@H](Nc2ncncc2C(=O)c2cc3c(s2)CCC32NCCc3cc(Cl)c(Cl)cc32)C[C@@H]1O (stereo partly shown) [Compound 70] | 50 to 200 | 
Cc1cc2c(cc1Cl)C1(CCc3sc(C(=O)c4cncnc4N[C@@H]4C[C@H](COS(N)(=O)=O)[C@@H](O)C4)cc31)NCC2 (stereo partly shown) [Compound 71] | 50 to 200 | 
N#Cc1cc2c(cc1Cl)C1(CCc3sc(C(=O)c4cncnc4N[C@@H]4C[C@H](COS(N)(=O)=O)[C@@H](O)C4)cc31)NCC2 (stereo partly shown) [Compound 72] | 50 to 200 | 
COc1cc2c(cc1Cl)C1(CCc3sc(C(=O)c4cncnc4N[C@@H]4C[C@H](COS(N)(=O)=O)[C@@H](O)C4)cc31)NCC2 (stereo partly shown) [Compound 73] | 50 to 200 | 
NS(=O)(=O)OC[C@H]1C[C@@H](Nc2ncncc2C(=O)c2cc3c(s2)CCC32NCCc3cc(F)c(Cl)c(F)c32)C[C@@H]1O (stereo partly shown) [Compound 74] | 50 to 200 | 
NS(=O)(=O)OC[C@H]1C[C@@H](Nc2ncncc2C(=O)c2cc3c(s2)CCC32NCCc3cc(Cl)c(F)cc32)C[C@@H]1O (stereo partly shown) [Compound 75] | 50 to 200 | 
NS(=O)(=O)OC[C@H]1C[C@@H](Nc2ncncc2C(=O)c2cc3c(s2)CCC32NCCc3ccncc32)C[C@@H]1O (stereo partly shown) [Compound 76] | 50 to 200 | 
NS(=O)(=O)OC[C@H]1C[C@@H](Nc2ncncc2C(=O)c2cc3c(s2)CCC32NCCc3cc(Cl)ncc32)C[C@@H]1O (stereo partly shown) [Compound 77] | 50 to 200 | 
NS(=O)(=O)OC[C@H]1C[C@@H](Nc2ncncc2C(=O)c2cc3c(s2)C=CC32NCCc3ccc(Cl)cc32)C[C@@H]1O (stereo partly shown) [Compound 78] | ≤ 50 | 
NS(=O)(=O)OC[C@H]1C[C@@H](Nc2ncncc2C(=O)c2cc3c(s2)C=CC32NCCc3ccc(F)cc32)C[C@@H]1O (stereo partly shown) [Compound 79] | 50 to 200 | 
NS(=O)(=O)OC[C@H]1C[C@@H](Nc2ncncc2C(=O)c2cc3c(s2)COC32NCCc3ccc(Cl)cc32)C[C@@H]1O (stereo partly shown) [Compound 80] | 50 to 200 | 
NS(=O)(=O)OC[C@H]1C[C@@H](Nc2ncncc2C(=O)c2cc3c(s2)CCC32NCC3(CC3)c3ccc(Cl)cc32)C[C@@H]1O (stereo partly shown) [Compound 81] | 50 to 200 | 
NS(=O)(=O)OC[C@H]1C[C@@H](Nc2ncncc2C(=O)c2cc3c(s2)CCC32NC3(CC3)Cc3ccc(Cl)cc32)C[C@@H]1O (stereo partly shown) [Compound 82] | 50 to 200 | 

Compound | IC50 (class symbols) [nM] | IC50 (numeric values) [nM]
NS(=O)(=O)OC[C@H]1C[C@@H](Nc2ncncc2C(=O)c2cc3c(s2)CCC32NCC(=O)c3ccc(Cl)cc32)C[C@@H]1O (stereo partly shown) [Compound 83] | 50 to 200 | 
NS(=O)(=O)OC[C@H]1C[C@@H](Nc2ncncc2C(=O)c2cc3c(s2)CCC32OCCc3ccc(Cl)cc32)C[C@@H]1O (stereo partly shown) [Compound 84] | ≤ 50 | 
NS(=O)(=O)OC[C@H]1C[C@@H](Nc2ncncc2C(=O)c2cc3c(s2)CSCC32NCCc3ccccc32)C[C@@H]1O (stereo partly shown) [Compound 85] | > 200 | 
NS(=O)(=O)OC[C@H]1C[C@@H](Nc2ncncc2C(=O)c2cc3c(s2)CSC[C@@]32NCCc3ccccc32)C[C@@H]1O [Compound 86] | > 200 | 
NS(=O)(=O)OC[C@H]1C[C@@H](Nc2ncncc2C(=O)c2cc3c(s2)CSC[C@]32NCCc3ccccc32)C[C@@H]1O [Compound 87] | 50 to 200 | 
NS(=O)(=O)OC[C@H]1C[C@@H](Nc2ncncc2C(=O)c2cc3c(s2)CSCC32NCCc3ccc(F)cc32)C[C@@H]1O (stereo partly shown) [Compound 88] | ≤ 50 | 
NS(=O)(=O)OC[C@H]1C[C@@H](Nc2ncncc2C(=O)c2cc3c(s2)CSC[C@@]32NCCc3ccc(F)cc32)C[C@@H]1O [Compound 89] | > 200 | 
NS(=O)(=O)OC[C@H]1C[C@@H](Nc2ncncc2C(=O)c2cc3c(s2)CSC[C@]32NCCc3ccc(F)cc32)C[C@@H]1O [Compound 90] | ≤ 50 | 
NS(=O)(=O)OC[C@H]1C[C@@H](Nc2ncncc2C(=O)c2cc3c(s2)CSCC32NCCc3ccc(Cl)cc32)C[C@@H]1O (stereo partly shown) [Compound 91] | ≤ 50 | 
NS(=O)(=O)OC[C@H]1C[C@@H](Nc2ncncc2C(=O)c2cc3c(s2)CSC[C@@]32NCCc3ccc(Cl)cc32)C[C@@H]1O [Compound 92] |  | > 1000
NS(=O)(=O)OC[C@H]1C[C@@H](Nc2ncncc2C(=O)c2cc3c(s2)CSC[C@]32NCCc3ccc(Cl)cc32)C[C@@H]1O [Compound 93] |  | 28.9
NS(=O)(=O)OC[C@H]1C[C@@H](Nc2ncncc2C(=O)c2cc3c(s2)COCC32NCCc3ccc(Cl)c(Cl)c32)C[C@@H]1O (stereo partly shown) [Compound 94] | 50 to 200 | 
NS(=O)(=O)OC[C@H]1C[C@@H](Nc2ncncc2C(=O)c2cc3c(s2)COC[C@@]32NCCc3ccc(Cl)c(Cl)c32)C[C@@H]1O [Compound 95] | > 200 | 
NS(=O)(=O)OC[C@H]1C[C@@H](Nc2ncncc2C(=O)c2cc3c(s2)COC[C@]32NCCc3ccc(Cl)c(Cl)c32)C[C@@H]1O [Compound 96] | 50 to 200 | 
NS(=O)(=O)OC[C@H]1C[C@@H](Nc2ncncc2C(=O)c2cc3c(s2)COCC32NCCc3cc(Cl)c(Cl)cc32)C[C@@H]1O (stereo partly shown) [Compound 97] | 50 to 200 | 
NS(=O)(=O)OC[C@H]1C[C@@H](Nc2ncncc2C(=O)c2cc3c(s2)COC[C@@]32NCCc3cc(Cl)c(Cl)cc32)C[C@@H]1O [Compound 98] | > 200 | 
NS(=O)(=O)OC[C@H]1C[C@@H](Nc2ncncc2C(=O)c2cc3c(s2)COC[C@]32NCCc3cc(Cl)c(Cl)cc32)C[C@@H]1O [Compound 99] | 50 to 200 | 
NS(=O)(=O)OC[C@H]1C[C@@H](Nc2ncncc2C(=O)c2cc3c(s2)COCC32NCCc3c(Cl)cc(Cl)cc32)C[C@@H]1O (stereo partly shown) [Compound 100] | 50 to 200 | 
NS(=O)(=O)OC[C@H]1C[C@@H](Nc2ncncc2C(=O)c2cc3c(s2)COC[C@@]32NCCc3c(Cl)cc(Cl)cc32)C[C@@H]1O [Compound 101] | > 200 | 
NS(=O)(=O)OC[C@H]1C[C@@H](Nc2ncncc2C(=O)c2cc3c(s2)COC[C@]32NCCc3c(Cl)cc(Cl)cc32)C[C@@H]1O [Compound 102] | 50 to 200 | 
NS(=O)(=O)OC[C@H]1C[C@@H](Nc2ncncc2C(=O)c2cc3c(s2)COCC32NCCc3ccc(Cl)c(F)c32)C[C@@H]1O (stereo partly shown) [Compound 103] | 50 to 200 | 
NS(=O)(=O)OC[C@H]1C[C@@H](Nc2ncncc2C(=O)c2cc3c(s2)COC[C@@]32NCCc3ccc(Cl)c(F)c32)C[C@@H]1O [Compound 104] | > 200 | 
NS(=O)(=O)OC[C@H]1C[C@@H](Nc2ncncc2C(=O)c2cc3c(s2)COC[C@]32NCCc3ccc(Cl)c(F)c32)C[C@@H]1O [Compound 105] | 50 to 200 | 
NS(=O)(=O)OC[C@H]1C[C@@H](Nc2ncncc2C(=O)c2cc3c(s2)COCC32NCCc3cc(F)c(Cl)cc32)C[C@@H]1O (stereo partly shown) [Compound 106] | 50 to 200 | 
NS(=O)(=O)OC[C@H]1C[C@@H](Nc2ncncc2C(=O)c2cc3c(s2)COC[C@@]32NCCc3cc(F)c(Cl)cc32)C[C@@H]1O [Compound 107] | > 200 | 
NS(=O)(=O)OC[C@H]1C[C@@H](Nc2ncncc2C(=O)c2cc3c(s2)COC[C@]32NCCc3cc(F)c(Cl)cc32)C[C@@H]1O [Compound 108] | 50 to 200 | 
